Test results reported in PMC4744088 (Journal of biomolecular screening, 2015).

Assay: "true hits" assay alpha screen signal
Conditions: indicates false positive

**Q.** Which “inhibition of the "true hits" assay alpha screen signal” value does the source give for `Nc1c(S(=O)(=O)O)cc(Nc2ccc(Nc3nc(Cl)nc(Nc4cccc(S(=O)(=O)O)c4)n3)c(S(=O)(=O)O)c2)c2c1C(=O)c1ccccc1C2=O` [Reactive blue 2] here?
**A.** greater than 50%
